Inhibition and melting point data for 1 molecule are collected here from article PMC10537604, “Development and Assessment of 1,5–Diarylpyrazole/Oxime Hybrids Targeting EGFR and JNK–2 as Antiproliferative Agents: A Comprehensive Study through Synthesis, Molecular Docking, and Evaluation” (Molecules, 2023).

The subject of series [1] is human hepatocellular carcinoma cell line HepG2. The experiment in a line: WST-8 antiproliferative assay, HepG2. It counts as cell-based. The following applies: HepG2, 100 µM, WST-8 assay, read-out: Growth Inhibition (GI%) HepG2. (In general: Tetrazolium assays rely on reduction of a dye to a coloured formazan, in cell work by metabolically active cells.)
In series [2] the test system is human myelogenous leukemia cell line K562. The experiment in a line: WST-8 antiproliferative assay, K562. It is filed as cell-based. The following applies: Homo sapiens, K562; 100 µM, WST-8 assay; read-out: Growth Inhibition (GI%) K562.
Series [3] has as its system human colorectal adenocarcinoma cell line DLD-1. The experiment in a line: WST-8 antiproliferative assay, DLD-1. Particulars: DLD-1, 100 µM, WST-8 assay, read-out: Growth Inhibition (GI%) DLD-1. It is filed as cell-based.
Series [4] deals with human pancreatic cancer cell line SUIT-2. The experiment in a line: WST-8 antiproliferative assay, SUIT-2. The following applies: SUIT-2, 100 µM, WST-8 assay, read-out: Growth Inhibition (GI%) SUIT-2. It is filed as cell-based.
Series [5] relates to human cervical cancer cell line Hela. The experiment in a line: WST-8 antiproliferative assay, Hela. It is filed as cell-based. The following applies: 100 µM, WST-8 assay, read-out: Growth Inhibition (GI%) Hela.

The molecule `COc1ccc(-c2cc(C(=O)Nc3ccc(/C(C)=N/O)cc3)nn2-c2ccc(S(N)(=O)=O)cc2)cc1` [Compound 10b, (E)–N–(4–(1–(Hydroxyimino)ethyl)phenyl)–5–(4–methoxyphenyl)–1–(4–sulfamoylphenyl)–1H–pyrazole–3–carboxamide] yielded a melting point of 110 to 112 °C. Moreover, in series [1], the inhibition at 100 µM stood at 2%. In addition, in series [2], the inhibition at 100 µM stood at 84%. Moreover, the inhibition at 100 µM in series [3] is 72.5%. Also, the inhibition at 100 µM in series [4] was 50%. In series [5], the inhibition at 100 µM was 2%.

What is called inhibition is the drop in the measured response relative to a control, in per cent. In general, melting point refers to the temperature of the solid-liquid transition.
